Source: US20230405151A1, “USE OF IRAK4 MODULATORS FOR GENE THERAPY” (Genzyme Corporation, priority 2022, published 2023)

Tests used:
[1] = system: phosphorylation of IRAK4 kinase target protein NFkB; experiment: AlphaLISA SureFire Ultra p-NFκB (Ser536) assay after LPS; format: cell-based, human; details: doses 16 nM, 80 nM, 400 nM and 2000 nM; LPS 300 ng/ml
Description: IRAK4 targeting drugs and AAV Treatments. Dendritic cells were plated in 96 well plates with 200,000 cells per well. Each treatment was performed in triplicates. Cells were treated with zimlovisertib IRAK4 inhibitor (Synonyms: PF-06650833) Cat. No.: HY-19836 (MedChemExpress) and PROTAC IRAK4 degrader-1 Cat. No.: HY-129966 (MedChemExpress) at 16 nm, 80 nm, 400 nm and 2000 nm for 18 hrs at 37° C., 5% CO2 in an incubator. After pre-treatment of 18 hrs with the drugs, AAV vectors at 1e5 MOI were used. The cells were incubated at 37° C., 5% CO2 in an incubator for 24 hours. After 24 hours, plates were centrifuged and media supernatant was collected. The clarified media was analyzed by Meso Scale Discovery MSD (world wide web mesoscale.com/products/v-plex-proinflammatory-panel-1-human-kit-k15049d/) performed by DC3 therapeutics https://www.dc3therapeutics.com/services. The experiment outline of PBMC isolation, monocyte purification and dendritic cell differentiation is illustrated in FIG. 1. […]
AlphaLISA assay. […] Finally, SA-donor beads are added and 30 min later plates are read using EnVision-Alpha Reader (615 nm) https://resources.perkinelmer.com/lab-solutions/resources/docs/MAN_AlphaLISA_IRAK4_AL3117.pdf?_gl=1*7jzf5d*_ga*MzQ4MTQ1NzA3LjE2NDY2NzY5MjI.*_ga_W34ZJ1Z1Q1*MTY3NzE5MjAyOS4zLjEuMTY3NzE5MjA2Mi4yNy4wLjA.&_ga=2.178521252.1409175695.1677192029-348145707.1646676922. […]

IRAK4 protein = target: T1, IRAK4 protein (Homo sapiens, UniProt Q9NWZ3); experiment: AlphaLISA assay of IRAK4 protein levels in cell lysates; format: cell-based; details: 16 nM, 80 nM, 400 nM and 2000 nM; AAV.SAN024 MOI 1e5 24 hrs
T1 construct: endogenous in cells; host or cells: primary human monocyte-derived dendritic cells from PBMC donors
T1 sequence (Q9NWZ3 1-460): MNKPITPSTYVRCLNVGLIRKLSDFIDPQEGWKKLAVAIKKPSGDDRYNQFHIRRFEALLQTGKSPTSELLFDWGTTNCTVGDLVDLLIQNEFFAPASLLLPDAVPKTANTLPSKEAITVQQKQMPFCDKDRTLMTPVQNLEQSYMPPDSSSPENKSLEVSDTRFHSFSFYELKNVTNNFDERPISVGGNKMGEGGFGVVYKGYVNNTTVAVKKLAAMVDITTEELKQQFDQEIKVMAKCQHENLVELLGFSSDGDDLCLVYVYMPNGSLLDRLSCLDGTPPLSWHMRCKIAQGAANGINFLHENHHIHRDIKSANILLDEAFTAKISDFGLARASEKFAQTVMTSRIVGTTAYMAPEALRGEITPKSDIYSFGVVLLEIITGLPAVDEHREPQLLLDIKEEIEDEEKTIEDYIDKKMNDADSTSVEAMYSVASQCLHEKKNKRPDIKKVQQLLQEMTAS
Description: AlphaLISA assay. This assay was performed to measure the levels of IRAK4 protein in the cells. The protocol was followed as per manufacturer's recommendation Perkin Elmer (Catalog #AL3117C). Briefly, cells were lysed and 5 μL of lysates were added to Anti-IRAK4 Acceptor Beads and incubated for 30 min at 23° C., then Biotinylated Anti-IRAK4 Antibody was added and incubated for 60 min at 23° C. Finally, SA-donor beads are added and 30 min later plates are read using EnVision-Alpha Reader (615 nm) https://resources.perkinelmer.com/lab-solutions/resources/docs/MAN_AlphaLISA_IRAK4_AL3117.pdf?_gl=1*7jzf5d*_ga*MzQ4MTQ1NzA3LjE2NDY2NzY5MjI.*_ga_W34ZJ1Z1Q1*MTY3NzE5MjAyOS4zLjEuMTY3NzE5MjA2Mi4yNy4wLjA.&_ga=2.178521252.1409175695.1677192029-348145707.1646676922. The same protocol was used to measure phosphorylation levels of NFkB using AlphaLISA SureFire Ultra p-NFκB (Ser536) Assay Kit—High Volume Catalog #ALSU-PNFKB-A-HV.
To determine the activity of PROTAC degrader, human monocytic dendritic cells were treated with different doses of drugs as indicated (16 nM, 80 nM, 400 nM and 2000 nM) and the same cells were infected with AAV.SAN024 at MOI of 1e5 for 24 hrs. Cell lysates were analysed for IRAK4 degradation. No significant difference was observed between the control (untretaed/uninfected) cells as compared to the treated and AAV. SAN024 infected cells but the AAV.

With CC[C@@H]1[C@H](F)C(=O)N[C@@H]1COc1nccc2cc(C(N)=O)c(OC)cc12 [zimlovisertib, 1-[[(2S,3S,4S)-3-Ethyl-4-fluoro-5-oxo-2-pyrrolidinyl]methoxy]-7-methoxy-6-isoquinolinecarboxamide] the “Phosphorylation of NFkB induced by LPS” value [1] was “blocks phosphorylation of NFkB at 400 nM and 2000 nM”.

O=C1CCC(N2C(=O)c3cccc(NCc4cn(CCCNC(=O)c5ccc(-n6cc(NC(=O)c7coc(-c8ccnc(NCC9CC9)c8)n7)c(C(F)(F)F)n6)cc5)cn4)c3C2=O)C(=O)N1 (centres unmarked) [PROTAC IRAK4 degrader-1] was tested, and the “IRAK4 levels (IRAK4 degradation) in cell lysates” value (IRAK4 protein) was “reduction of IRAK4 levels at all doses”.
